Source: patent publication US20110092448A1, “Peptide Conjugate for Oral Delivery of Hydrophilic Peptide Analgesics” (METABOLIC PHARMACEUTICALS LIMITED, priority 2005, published 2011)
Where two headings read alike, the source gives them in different places.

What was measured:
[1] = rat, in vivo
[2] = test system: neuronal nicotinic acetylcholine receptor; format: cell-based, bovine
[3] = test system: chronic neuropathy (CCI) in Sprague-Dawley rats; details: rat, in vivo
[4] = test system: STZ diabetic Sprague-Dawley rats with neuropathic pain; details: rat, in vivo

## CC[C@H](C)[C@@H]1NC(=O)[C@H](CCC(=O)O)NC(=O)[C@@H]2CCCN2C(=O)[C@H](Cc2cnc[nH]2)NC(=O)[C@H](CC(=O)O)NC(=O)[C@H](Cc2ccc(O)cc2)NC(=O)[C@H](CC(N)=O)NC(=O)[C@@H]2CSSC[C@H](NC(=O)CN)C(=O)N[C@@H](CSSC[C@@H](C(N)=O)NC1=O)C(=O)N[C@@H](CO)C(=O)N[C@@H](CC(=O)O)C(=O)N1CCC[C@H]1C(=O)N[C@@H](CCCNC(=N)N)C(=O)N2 [ACV1, Gly-Cys-Cys-Ser-Asp-Pro-Arg-Cys-Asn-Tyr-Asp-His-Pro-Glu-Ile-Cys-NH2]
[1]
  oral availability compared with subcutaneous (plasma concentrations): 1-2%
[2]
  catecholamine release in response to nicotine: decreased catecholamine release
[3]
  analgesic effect (relieving pain): not effective
[3]; po
  analgesic effect (relieving pain): not effective
[3]; sc
  analgesic effect (relieving pain): effective

## Ac-Tyr-Leu-Arg-Ile-Val-Gly-Cys-Cys-Ser-Asp-Pro-Arg-Cys-Asn-Tyr-Asp-His-Pro-Glu-Ile-Cys-NH2 (Ac-YLRIVGCCSDPRCNYDHPEIC-NH2; cysteine pairing not given here) [ACV3]
[2]
  catecholamine release in response to nicotine: decreased catecholamine release
[4]
  relative oral availability: 30-70%
[4]; po
  minimum dose for maximal activity: ~0.3 mg/kg
  oral absorption (time profile of effect): rapid
[4]; sc
  minimum dose for maximal activity: ~0.3 mg/kg
[3]; 2 mg/kg
  analgesic effect vs vehicle group: significant difference
  withdrawal threshold after one hour: increase in withdrawal threshold
